# Values of other authors as cited in paper PMC4008261, “Rewiring of regenerated axons by combining treadmill training with semaphorin3A inhibition” (Molecular Brain, 2014).
# Assays:
# [1] = system: SCT adult rats; parameters: method as in PMID 17099709; settings: adult rats after total spinal cord transection (SCT), osmotic mini-pump; cited from earlier work
# [2] = system: semaphorin3A; parameters: method as in PMID 17099709; settings: in vitro and in vivo; cited from earlier work
smiles,measurement,setting,value
"CC(=O)c1c(C)c(/C(O)=C2\COc3cc(O)c(O)c(C(=O)O)c3C2=O)cc2c(=O)c3c(C(=O)O)c(O)c(O)cc3oc12 [SM-216289, xanthofulvin]",axonal regeneration and motor function recovery,[1],led to axonal regeneration and motor function recovery
same,inhibition of semaphorin3A signaling,[2],selectively inhibits semaphorin3A signaling both in vitro and in vivo
